# Assay results reported in patent US12138398B2, “Methods and devices for providing a stimulus to a subject to induce gamma oscillations” (Massachusetts Institute of Technology, priority 2015, dated 2024).
# Where “and” joins values, the source holds several entries; their conditions need not be identical. Identical values can stand only once. Like-named read-outs stand apart in the source and are kept apart here.
# What was measured:
# AD patients = conditions: cited from earlier work
# [1] = tested on: organotypic hippocampal slices prepared from transgenic (Tg) mice overexpressing APP; conditions: cited from earlier work
# [2] = tested on: Aβ1-40 and Aβ1-42 levels in 5×FAD visual cortex; experiment: Aβ ELISA of visual cortex after one hour 40-Hz light flicker with picrotoxin pretreatment; assay type: in vivo, mouse
# Excerpt: FIGS. 47A and 47B are bar graphs depicting changes in baseline levels of Aβ1-40 and Aβ1-42, respectively, in 5×FAD visual cortex in dark, light, 40-Hz flicker, 20-Hz flicker, 80-Hz flicker, 40-Hz flicker with picrotoxin (PTX) and Random flicker conditions in accordance with some embodiments (n=12 mice per group for dark; n=6 mice per group for light, 40-Hz flicker, 20-Hz flicker, 80-Hz flicker, and PTX; n=4 mice per group for Random flicker; “n.s.” indicates not significant, one asterisk indicates p<0.05, and two asterisks indicate p<0.01 by one-way ANOVA). FIGS. 47 and 47B show mean and SEM. Circles superimposed on bars in the bar graphs indicate individual data points in each group. Following one hour after light exposure, it was observed that Aβ1-40 levels in visual cortex were reduced by 57.96% and Aβ1-42 levels by 57.97% compared to the dark condition (as measured by Aβ ELISA, see, e.g., FIGS. 47A and 47B, p<0.05 by one-way ANOVA, n=6 mice per group). Compared to light controls, amyloid levels were reduced by 62.47% (Aβ1-40) and 68.55% (Aβ1-42) following one hour of 40-Hz flicker (as measured by Aβ ELISA, see, e.g., FIG. 4′7, p<0.05 by one-way ANOVA, n=6 mice per group). […]
# Fifteen minutes prior to the experiment 5×FAD mice were treated with saline (Control) or picrotoxin (0.18 mg/kg). For molecular and biochemical analyses mice were then placed in a dark chamber illuminated by an LED bulb and exposed to one of five stimulation conditions: dark, light, 20-Hz flicker, 40-Hz flicker, or 80-Hz flicker (12.5 ms light on, 12.5 ms light off) for one hour (see, e.g., FIG. 43A). For electrophysiological recordings each animal received dark, light, 40-Hz flicker, or random (light pulses were delivered with a random interval determined by a Poisson process with an average interval of 40 Hz) stimulation conditions interleaved in 10 s blocks during recordings. […]
# [3] = 5×FAD visual cortex (VC), 40 Hz flicker one hour + PTX (0.18 mg/kg pretreatment), ELISA dilution 1:2, individual mice
compound,measurement,setting,value
COc1cc2c(cc1OC)C(=O)C(CC1CCN(Cc3ccccc3)CC1)C2 (stereo not drawn) [donepezil],clinical outcome on cognition,"AD patients; human, in vivo",only mild cognitive benefits
CCN(C)C(=O)Oc1cccc([C@H](C)N(C)C)c1 [rivastigmine],clinical outcome on cognition,AD patients; AD subjects,only mild cognitive benefits
CC(C)[C@H](O)C(=O)N[C@@H](C)C(=O)N[C@@H]1C(=O)N(C)CCc2ccccc21 [semagacestat],clinical outcome on cognition,AD patients; AD subjects,worsening of cognitive deficits
NC1=N[C@H](O)[C@H]2[C@H]3O[C@]4(O)O[C@@H]([C@@H](O)[C@@]2(N1)[C@@H]4O)[C@]3(O)CO [tetrodotoxin],Aβ levels,[1],decreased
same,neuronal activity,[1],decreased
picrotoxin [PTX],effects of 40-Hz flicker on Aβ levels after picrotoxin pretreatment,"[2]; 5×FAD mice, picrotoxin 0.18 mg/kg",completely abrogated
same,Average Aβ1-40 Concentration,[2]; [3],367.2 pg/ml and 431.4 pg/ml and 445.2 pg/ml (2×) and 392.4 pg/ml and 386.7 pg/ml
same,Aβ1-42 concentration,[2]; [3],396.6 pg/ml and 540.5 pg/ml and 532.7 pg/ml and 705.0 pg/ml and 104.5 pg/ml (2×)
same,neuronal activity,"[1]; organotypic hippocampal slices, APP Tg mice",increased neuronal activity
